The target of experiment [1] is T1, mTGR5 (Mus musculus, UniProt Q80SS6).
T1 construct: expressed in transfected cells; host or cells: HEK293 cells, transiently co-transfected with the pCRE TA-Luciferase reporter
T1 sequence (Q80SS6 1-329): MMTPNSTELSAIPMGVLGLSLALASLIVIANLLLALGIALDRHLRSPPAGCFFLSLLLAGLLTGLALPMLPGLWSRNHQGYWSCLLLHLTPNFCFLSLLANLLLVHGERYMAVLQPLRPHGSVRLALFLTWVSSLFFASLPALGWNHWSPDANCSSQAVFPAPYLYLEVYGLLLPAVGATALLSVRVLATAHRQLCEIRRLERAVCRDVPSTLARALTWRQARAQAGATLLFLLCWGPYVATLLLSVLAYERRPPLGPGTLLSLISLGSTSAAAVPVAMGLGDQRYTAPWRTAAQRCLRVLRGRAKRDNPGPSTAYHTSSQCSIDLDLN
The experiment is described as follows: TGR5/CRE Luciferase Assay (mTGR5). The note with it: for EC50: HEK 293 cells co-transfected with pCMV AC6-TGR5m and pCRE TA-Luciferase, overnight incubation; for mTGR5 % trans: percentage of the 10 μM LCA value, HEK 293 cells transfected with mTGR5. It is filed as cell-based. As for the experimental part: (§1) TGR5/CRE Luciferase Assay
(§2) In the following Tables TGR5 activation by compounds of the invention and subsequent increase in intracellular cAMP were evaluated using a luciferase reporter gene assay. Human embryonic kidney (HEK) 293 cells were transiently co-transfected with pCMV tag4b-TGR5 h (to follow hTGR5 activation) or pCMV AC6-TGR5m (to follow mTGR5 activation) expression plasmids and the pCRE TA-Luciferase reporter plasmid using the JET PEI reagent (Polyplus transfection). Transfected cells were seeded in 96-well plates and incubated overnight with the test compounds at increasing concentrations tested in duplicate. Lithocolic acid (LCA) at 10 μM was used as a positive reference compound. The cAMP-dependent luciferase expression was followed using the BrightGlo reagent according to the manufacturer (Promega) instructions. Luminescence was read with a Mithras plate reader (Berthold) or a Victor3™ V1420 (Perkin Elmer). […] Concentration-response curves were fitted by a nonlinear regression analysis to a 4 parameter logistic equation

Experiment [2] has as its target T2, hTGR5 (Homo sapiens, UniProt Q8TDU6).
T2 construct: expressed in transfected cells; host or cells: HEK293 cells, transiently co-transfected with the pCRE TA-Luciferase reporter
T2 sequence (Q8TDU6 1-330): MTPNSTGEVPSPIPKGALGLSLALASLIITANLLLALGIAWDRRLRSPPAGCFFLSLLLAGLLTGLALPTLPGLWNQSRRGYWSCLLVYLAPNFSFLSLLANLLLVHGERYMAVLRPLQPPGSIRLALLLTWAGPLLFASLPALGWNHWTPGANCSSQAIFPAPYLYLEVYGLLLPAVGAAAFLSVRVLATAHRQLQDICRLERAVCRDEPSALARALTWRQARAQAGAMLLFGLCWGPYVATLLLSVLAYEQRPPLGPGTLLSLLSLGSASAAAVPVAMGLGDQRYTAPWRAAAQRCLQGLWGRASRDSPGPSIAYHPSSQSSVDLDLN
Nature of the experiment: TGR5/CRE Luciferase Assay (hTGR5). The class given is cell-based. The note with it: for EC50: HEK 293 cells co-transfected with pCMV tag4b-TGR5h and pCRE TA-Luciferase, overnight incubation; for hTGR5 % trans: percentage of the 10 μM LCA value, HEK 293 cells transfected with hTGR5. As for the experimental part:
as §1, §2

Each structure is given as a SMILES string.

The term EC50 denotes the concentration at which the effect is half-maximal. High values mean a less potent agent, low ones a more potent agent.

As to `COCCN1C(=O)CC(c2ccc(-c3ccccc3)cc2)C(C(=O)OCc2ccccc2)=C1C` (stereo not shown) [Example 123, Benzyl 1-(2-methoxyethyl)-6-methyl-2-oxo-4-(4-phenylphenyl)-3,4-dihydropyridine-5-carboxylate], in experiment [1], the midpoint of the response, the EC50, lay at 2800 nM and the mTGR5 % trans is listed as 10%. Moreover, in experiment [2], it took 1400 nM to reach a half-maximal effect (EC50) and the hTGR5 % trans is recorded as 17%.

In experiment [1], `C=C(C)CN1C(=O)CC(c2ccc(Cl)cc2)C(C(=O)OCc2ccccc2)=C1C` (stereo not shown) [Compound 39, Benzyl 4-(4-chlorophenyl)-6-methyl-1-(2-methylallyl)-2-oxo-3,4-dihydropyridine-5-carboxylate] registered a concentration for a half-maximal effect (EC50) of 1400 nM and a mTGR5 % trans of 73%. In experiment [2], this compound had an EC50 of 1300 nM and a hTGR5 % trans of 82%.

With `COc1ccccc1[C@H](C)OC(=O)C1=C(C)N(C[C@H]2CCCO2)C(=O)C[C@H]1c1ccc(Cl)cc1` [Example 138, 1-(2-methoxyphenyl)ethyl (4S)-4-(4-chlorophenyl)-6-methyl-2-oxo-1-[[(2R)-tetrahydrofuran-2-yl]methyl]-3,4-dihydropyridine-5-carboxylate], in experiment [1], a half-maximal effect (EC50) was put at 1110 nM and the mTGR5 % trans was determined as 36%. Also, in experiment [2], the concentration for a half-maximal effect (EC50) was 380 nM and the hTGR5 % trans amounted to 70%.

For `COc1ccc(COC(=O)C2=C(C)N(C)C(=O)CC2c2ccc(Cl)cc2)cc1OC` (stereo not shown) [Example 83, (3,4-dimethoxyphenyl)methyl 4-(4-chlorophenyl)-1,6-dimethyl-2-oxo-3,4-dihydropyridine-5-carboxylate], in experiment [1], the midpoint of the response, the EC50, lay at 400 nM and the mTGR5 % trans is 88%. In experiment [2], this compound had a concentration for a half-maximal effect (EC50) of 1200 nM and a hTGR5 % trans of 69%.

Consider `COCCOc1ccc(COC(=O)C2=C(C)N(CCOC)C(=O)CC2c2ccc(Cl)cc2)cc1` (stereo not shown) [Example 119, [4-(2-methoxyethoxy)phenyl]methyl 4-(4-chlorophenyl)-1-(2-methoxyethyl)-6-methyl-2-oxo-3,4-dihydropyridine-5-carboxylate], for which, in experiment [1], a half-maximal response (EC50) required 100 nM and the mTGR5 % trans was found to be 83%. Moreover, in experiment [2], the response was half-maximal at 100 nM (EC50) and the hTGR5 % trans was found to be 85%.

In the case of `CC1=C(C(=O)OCc2ccc(OCCCS(=O)(=O)O)cc2)[C@H](c2ccc(Cl)nc2)CC(=O)N1C[C@H]1CCCO1.N` [Example 166, Ammonium,3-[4-[[(4S)-4-(6-chloro-3-pyridyl)-6-methyl-2-oxo-1-[[(2R)-tetrahydrofuran-2-yl]methyl]-3,4-dihydropyridine-5-carbonyl]oxymethyl]phenoxy]propane-1-sulfonate], in experiment [1], a half-maximal response (EC50) required 100 nM and the mTGR5 % trans is 113%. In experiment [2], this compound gave a half-maximal effective concentration (EC50) of 160 nM and a hTGR5 % trans of 103%.

In experiment [1], `COc1ccccc1COC(=O)C1=C(C)N(C[C@H]2CCCO2)C(=O)C[C@H]1c1cccnc1Cl` (racemic) [Example 151, (2-Methoxyphenyl)methyl (4R)-4-(2-chloro-3-pyridyl)-6-methyl-2-oxo-1-[[(2R)-tetrahydrofuran-2-yl]methyl]-3,4-dihydropyridine-5-carboxylate and (2-methoxyphenyl)methyl (4S)-4-(2-chloro-3-pyridyl)-6-methyl-2-oxo-1-[[(2S)-tetrahydrofuran-2-yl]methyl]-3,4-dihydropyridine-5-carboxylate] registered a half-maximal effective concentration (EC50) of 12500 nM and a mTGR5 % trans of 44%. In addition, in experiment [2], the concentration for a half-maximal effect (EC50) came to 2200 nM and the hTGR5 % trans is reported as 87%.

Consider `CC1=C(C(=O)OCc2ccccc2)C(c2ccc(C)cc2)CC(=O)N1` (stereo not shown) [Compound 3, 2-Methyl-6-oxo-4-p-tolyl-1,4,5,6-tetrahydro-pyridine-3-carboxylic acid benzyl ester], for which, in experiment [1], the response was half-maximal at 10400 nM (EC50) and the mTGR5 % trans was 45%. In experiment [2], this compound displayed an EC50 of 7400 nM and a hTGR5 % trans of 65%.

Take `CC1=C(C(=O)OCc2ccccc2)C(c2ccc(Cl)cc2)CC(=O)N1CC(N)=O` (stereo not shown) [Compound 60, Benzyl 1-(2-amino-2-oxo-ethyl)-4-(4-chlorophenyl)-6-methyl-2-oxo-3,4-dihydropyridine-5-carboxylate]: in experiment [1], the EC50 turned out to be 14400 nM and the mTGR5 % trans came to 32%. In addition, in experiment [2], the EC50 is 13500 nM and the hTGR5 % trans came out at 42%.

The compound `CC1=C(C(=O)OCc2ccccc2)C(c2ccc(Cl)cc2)CC(=O)N1CCNC(=O)OC(C)(C)C` (stereo not shown) [Compound 52, Benzyl 1-[2-(tert-butoxycarbonylamino)ethyl]-4-(4-chlorophenyl)-6-methyl-2-oxo-3,4-dihydropyridine-5-carboxylate] came in with a mTGR5 % trans in experiment [1] of 0%. For the same compound, in experiment [2], the EC50 turned out to be 2500 nM and the hTGR5 % trans was found to be 18%.

`COc1ccccc1COC(=O)C1=C(C)N(CC2OCCO2)C(=O)CC1c1ccc(Cl)cc1` (stereo not shown) [Compound 72, (2-methoxyphenyl)methyl 4-(4-chlorophenyl)-1-(1,3-dioxolan-2-ylmethyl)-6-methyl-2-oxo-3,4-dihydropyridine-5-carboxylate]: in experiment [1], the EC50 was 200 nM and the mTGR5 % trans is on record as 92%. In experiment [2], this compound came in with an EC50 of 80 nM and a hTGR5 % trans of 99%.

In experiment [1], `COCCN1C(=O)CC(c2ccc(Cl)cc2)C(C(=O)OCc2ccccc2C#N)=C1C` (stereo not shown) [Example 93, (2-cyanophenyl)methyl 4-(4-chlorophenyl)-1-(2-methoxyethyl)-6-methyl-2-oxo-3,4-dihydropyridine-5-carboxylate] gave an EC50 of 800 nM and a mTGR5 % trans of 53%. In experiment [2], this compound yielded a half-maximal effective concentration (EC50) of 600 nM and a hTGR5 % trans of 58%.

In the case of `COCCN1C(=O)CC(c2ccc(Cl)cc2)C(C(=O)OCc2ccc(F)cc2)=C1C` (stereo not shown) [Example 86, (4-fluorophenyl)methyl 4-(4-chlorophenyl)-1-(2-methoxyethyl)-6-methyl-2-oxo-3,4-dihydropyridine-5-carboxylate], in experiment [1], the EC50 came to 400 nM and the mTGR5 % trans was determined as 82%. In experiment [2], this compound showed an EC50 of 400 nM and a hTGR5 % trans of 71%.

Take `COCCOc1ccc(COC(=O)C2=C(C)N(C[C@@H]3CCCO3)C(=O)C[C@H]2c2ccc(Cl)cc2)cc1` (racemic) [Example 147, [4-(2-methoxyethoxy)phenyl]methyl (4S)-4-(4-chlorophenyl)-6-methyl-2-oxo-1-[[(2S)-tetrahydrofuran-2-yl]methyl]-3,4-dihydropyridine-5-carboxylate and [4-(2-methoxyethoxy)phenyl]methyl (4R)-4-(4-chlorophenyl)-6-methyl-2-oxo-1-[[(2R)-tetrahydrofuran-2-yl]methyl]-3,4-dihydropyridine-5-carboxylate]: in experiment [1], the EC50 worked out at 450 nM and the mTGR5 % trans amounted to 112%. In experiment [2], a half-maximal effect (EC50) was put at 190 nM and the hTGR5 % trans stood at 77%.

In experiment [1], `COCCN1C(=O)CC(c2ccc(Cl)cc2)C(C(=O)OCc2ccccc2C(F)(F)F)=C1C` (stereo not shown) [Example 90, [2-(trifluoromethyl)phenyl]methyl 4-(4-chlorophenyl)-1-(2-methoxyethyl)-6-methyl-2-oxo-3,4-dihydropyridine-5-carboxylate] yielded an EC50 of 1300 nM and a mTGR5 % trans of 34%. In experiment [2], this compound registered an EC50 of 1100 nM and a hTGR5 % trans of 57%.

In experiment [1], `COCCN1C(=O)CC(c2ccc(Cl)cc2)C(C(=O)OCC(=O)c2ccccc2)=C1C` (stereo not shown) [Example 112, Phenacyl 4-(4-chlorophenyl)-1-(2-methoxyethyl)-6-methyl-2-oxo-3,4-dihydropyridine-5-carboxylate] returned a concentration for a half-maximal effect (EC50) of 3200 nM and a mTGR5 % trans of 46%. In addition, in experiment [2], the 50% effective concentration (EC50) came to 5200 nM and the hTGR5 % trans stood at 20%.

In experiment [1], `COCCN1C(=O)CC(c2ccc(Cl)cc2)C(C(=O)OCc2ccc(Cl)cc2)=C1C` (stereo not shown) [Example 89, (4-chlorophenyl)methyl 4-(4-chlorophenyl)-1-(2-methoxyethyl)-6-methyl-2-oxo-3,4-dihydropyridine-5-carboxylate] had an EC50 of 300 nM and a mTGR5 % trans of 84%. Moreover, in experiment [2], the 50% effective concentration (EC50) was found to be 400 nM and the hTGR5 % trans was 65%.

Source of the values: US9932309B2, “2-oxo-3,4-dihydropyridine-5-carboxylates and their use” (UNIVERSITE DE LILLE 2 DROIT ET SANTE, priority 2014, dated 2018).
